Literature values in PMC2711878 (ACS chemical biology, 2009).
pKi: −log10 of the molar value.

Legend:
[1] = in vivo
[2] = target: monofunctional P. falciparum WT DHFR
[3] = target: P. falciparum N51I/C59R/S108N/I164L DHFR
[4] = target: P. falciparum double mutant C59R/S108N DHFR

| Compound | oral bioavailability [1] | Ki value, WT DHFR [2] | Ki value, quadruple mutant DHFR [3] | Ki value, double mutant DHFR [4] | pKi ([2]; read-out: Ki, WT DHFR, monofunctional enzyme) | Ki, fold less inhibitory than WT, quadruple mutant ([3]; N51I/C59R/S108N/I164L, monofunctional enzyme) [fold] | Ki, fold less inhibitory than WT, double mutant ([4]; C59R/S108N, monofunctional enzyme) [fold] |
| --- | --- | --- | --- | --- | --- | --- | --- |
| CC1(C)N=C(N)N=C(N)N1OCCCOc1cc(Cl)c(Cl)cc1Cl [WR99210] | poor | sub-nanomolar | sub-nanomolar | sub-nanomolar | – | – | – |
| CCc1nc(N)nc(N)c1-c1ccc(Cl)cc1 [pyrimethamine] | – | – | – | – | 8.82 | > 500 | 50 |
